Data as given in patent publication US10081615B2, “Sulfamate derivative compounds for use in treating or alleviating pain” (Bio-Pharm Solutions Co., Ltd., priority 2013, dated 2018).
Where two headings read alike, the source gives them in different places.

Experiments:
[1] = tested on: CFA-induced pain model; experiment: Antiallodynic activity on Complete Freund's Adjuvant (CFA)-induced inflammatory pain model (von Frey); format: in vivo, Sprague-Dawley rats; settings: ip
[2] = tested on: SNL model; experiment: Antiallodynic activity in the Chung model (SNL, Spinal Nerve Ligation; von Frey); format: in vivo, Sprague-Dawley rats
[3] = tested on: acetic acid-induced writhes; experiment: Writhing test (acetic acid); format: in vivo, ICR mice
Procedure: To examine the pain relief effect of the sulfamate derivative compounds, a writhing test was referring to Fischer, L. G. et al. (2008).
ICR mice (male, 24-28 g; Orient Bio, Korea) were habituated before test in test room for 1 hour. Animals were fasted for 2 hr before administration of compounds. […] All compounds were dissolved in a vehicle of 30% (v/v) PEG 400 or 20% (v/v) Tween 80. The control group was treated with the vehicle without compounds.
[…] Animals were habituated in the cage for 5 min. 5 min after habituation, the number of writhes (abdominal constriction) was counted for 15 minutes referring to Korzeniewska-Rybicka, I. et al. (1998) and compared with that of the control.

[4] = Rattus norvegicus, 0.5 h, read-out: CFA model: ED50 mg/kg
[5] = Rattus norvegicus, po, 1 h, read-out: SNL model: ED50 mg/kg
[6] = Mus musculus, po, 0.5 h, read-out: Writh test: ED50 mg/kg

**Q.** `CC1(C)Oc2ccccc2[C@@H](COS(N)(=O)=O)O1` [Example 2, ((S)-2,2-dimethyl-4H-benzo[d][1,3]dioxin-4-yl)methyl sulfamate] was tested. Which ED50 ([1]; rat, intraperitoneal, 0.5 h, read-out: CFA model: ED50) did it give?
**A.** 18.8 mg/kg

**Q.** And the ED50 ([2]; rat, oral, 1 h, read-out: SNL model: ED50)?
**A.** 4.5 mg/kg

**Q.** And the ED50 ([3]; mouse, oral, 1 h, read-out: Writh test: ED50)?
**A.** 152 mg/kg

**Q.** For `CC1(C)Oc2ccccc2[C@H](COS([NH-])(=O)=O)O1.[Na+]` [Example 58, Sodium (R)-(((2,2-dimethyl-4H-benzo[d][1,3]dioxin-4-yl)methoxy)sulfonyl)amide Trihydrate], which ED50 [1, 4] is on record?
**A.** 23.3 mg/kg

**Q.** What about the ED50 [2, 5] of the same molecule?
**A.** 8.9 mg/kg

**Q.** How did the ED50 ([1]; Rattus norvegicus, 1 h, read-out: CFA model: ED50 mg/kg) turn out when `CC1(C)Oc2ccccc2C(COS([NH-])(=O)=O)O1.[Na+]` (centres unmarked) [Example 60, Sodium (((2,2-dimethyl-4H-benzo[d][1,3]dioxin-4-yl)methoxy)sulfonyl)amide Trihydrate] was run?
**A.** 25 mg/kg

**Q.** What about the ED50 [2, 5] of the same molecule?
**A.** 3.5 mg/kg

**Q.** What about the ED50 [3, 6] of the same molecule?
**A.** 21 mg/kg

**Q.** Which ED50 [1, 4] does the source give for `[NH-]S(=O)(=O)OC[C@H]1OC2(CCCC2)Oc2ccccc21.[Na+]` [Example 65, Sodium (S)-(((4H-spiro[benzo[d][1,3]dioxine-2,1′-cyclopentan]-4-yl)methoxy)sulfonyl)amide] here?
**A.** 89.1 mg/kg

**Q.** What about the ED50 ([2]; Rattus norvegicus, po, 0.5 h, read-out: SNL model: ED50 mg/kg) of the same molecule?
**A.** 3.4 mg/kg

**Q.** What about the ED50 [3, 6] of the same molecule?
**A.** 55.1 mg/kg

**Q.** Which results are given for `CC1(C)Oc2ccccc2[C@H](COS([NH-])(=O)=O)O1.[K+]` [Example 70, Potassium (R)-(((2,2-dimethyl-4H-benzo[d][1,3]dioxin-4-yl)methoxy)sulfonyl)amide]?
**A.** response vs control in vivo at 25 mg/kg ([1]; Rattus norvegicus, 0.5 h, read-out: CFA model: effect (%) compared to control): 10.5%; response vs control in vivo at 3.5 mg/kg ([2]; Rattus norvegicus, po, 1 h, read-out: SNL model: effect (%) compared to control, rat, oral, 3.5 mg/kg administered, 1 h): 46.7%; Writh test: effect (%) compared to control ([3]; mouse, oral, 80 mg/kg administered, 1 hr): (29.1%, 1 hr)
